Tests used:
hypertensive subjects [1] = experiment: Treatment of a hypertensive patient with α-methyldopa alone; type: in vivo, Man; conditions: TRU... Yves
Method: Strong functional signs (headaches, dizziness). Treated during one month with α-methyldopa: 2, then 4, then 6 tablets per day, containing each 250 mg active ingredient.

Teratogenicity in rats = type: in vivo; conditions: 600 mg/kg
normotensive subjects = experiment: Effects in normotensive subjects; type: in vivo, Man
Method: Prior to the therapeutic tests, toxicological and clinical pharmacological investigations were conducted in normotensive Man. […] The systolic pressure is depressed by 2 to 4 cm of mercury, while the diastolic pressure is depressed by 2 cm, on the average.
Dosage of compound administered: 1 tablet containing 400 mg active ingredient during 1 week, 2 tablets during 1 week, 3 tablets during 3 weeks.
Dosage of compound administered: 1 tablets containing 400 mg active ingredient during 3 weeks, 2 tablets during the 5 following weeks.

[2] = system: rats made hypertensive by implantation of two 25 mg deoxycorticosterone pellets combined with a sodium enriched diet; experiment: Anti-hypertensive effect in deoxycorticosterone/sodium hypertensive rats; type: in vivo
Method: (§1) The anti-hypertensive effect was investigated:
2. in rats made hypertensive by implantation of two 25 mg deoxycorticosterone pellets combined with a sodium enriched diet;

[3] = Chronic toxicity, 6 months, Rhesus monkeys; type: in vivo; conditions: up to maximum dose tested 400 mg/kg
hypertensive subjects [4] = experiment: Therapeutic effects in hypertensive subjects, compound alone
Method: About a hundred patients were treated with the compound during several months.
The compound was tested alone at dosages from 300 mg to 5 g daily. […] The results just set forth relate to determinations made with the patients in a recumbent position.

[5] = Chronic toxicity, 6 months, rats; type: in vivo; conditions: up to maximum dose tested 400 mg/kg
[6] = Teratogenicity in rabbits; type: in vivo; conditions: 200 mg/kg
[7] = system: patients with true hypertension; experiment: Clinical experimentation involving 22 hospital patients; type: in vivo, Man; conditions: of 22 patients; criteria: systolic L1, diastolic L2
Method: Clinical experimentation involving 22 hospital patients.
Procedure: The patients selected suffer from true hypertension involving both systolic pressure and diastolic pressure. Before starting treatment with the compound, it was ascertained, during a period of time of 8 days, in the absence of any hypotensive treatment, that this hypertension was stable in the morning, at noon and in the evening, in standing, sitting and recumbent positions.
1. Effect on blood pressure: the result was evaluated on the basis of the blood pressure depression, expressed as cm of mercury, according to the following criteria: Result Nil Fair Good Very good __________________________________________________________________________ Systolic pressure depression 0 < 3 cm 3-4 cm > 4 cm Diastolic pressure depression 0 <1.5 cm 1.5-2 cm >2 cm __________________________________________________________________________
2. Effect on functional signs: headaches, dizziness, floating specks, ear buzzing.

[8] = system: rats made hypertensive according to Goldblatt's method; experiment: Anti-hypertensive effect in Goldblatt hypertensive rats; type: in vivo
From the text: as §1
3. in rats made hypertensive according to Goldblatt's method (unilateral renal arterial constriction with contralateral nephrectomy).

[9] = Acute toxicity (method of Lichtfield and Wilcoxon); conditions: in vivo
From the text: The compound used for such tests is the hydrochloride (LA 2511).

hypertensive subjects [10] = experiment: Treatment of hypertensive subjects with the compound in combination with other anti-hypertensive materials; type: in vivo, Man
Method: Combinations of the compound of this invention with other anti-hypertensiveagents were also investigated.
The most important combination is that with diuretic drugs, as predicted from the efficiency data provided by the pharmacological investigation. A reduction of the dosage of compound of about 50% and/or a three-fold duration of the action are obtained.
Dosage of compound administered: 5 tablets containing 400 mg active compound daily during 30 days. Associated treatment: salt-free diet, potassium chloride, furosemide: one 40 mg tablet, 3 times a week.
Dosage of compound administered: 5 tablets containing 400 mg active material, daily during 30 days. Associated treatment: potassium chloride, altizide: 15 mg; spironolactone: 25 mg.
Treatment during one month with the compound of this invention: 4 tablets daily, containing each 400 mg active ingredient, taken two at a time, plus 4 tablets daily of α-methyl dopa, containing each 250 mg active ingredient, taken two at a time.

[11] = system: dogs made hypertensive by the bilateral destruction of the sensory endings of the sino-carotid area; experiment: Anti-hypertensive effect in dogs with destroyed sino-carotid sensory endings; type: in vivo
From the text: as §1
1. in dogs made hypertensive by the bilateral destruction of the sensory endings of the sino-carotid area;

[12] = oral, 200 mg to 5 g daily, normotensive
[13] = fraction of subjects, alone, 300 mg to 5 g daily, recumbent
[14] = more than half the subjects, alone, 300 mg to 5 g daily, recumbent
[15] = one-fourth of the patients, alone, 300 mg to 5 g daily, recumbent
[16] = use as anti-hypertensive material in Man
[17] = GAU... Albert, 5 x 400 mg daily 30 days + altizide 15 mg, spironolactone 25 mg, potassium chloride, prior 21/13
[18] = GAU... Albert, + altizide, spironolactone
[19] = SUF... Auguste, 5 x 400 mg daily 30 days + furosemide 40 mg 3 times a week, potassium chloride, salt-free diet, prior 24/12
[20] = TRU... Yves, 4 x 400 mg daily + α-methyldopa 4 x 250 mg daily, one month, after α-methyldopa alone 21/111/2
[21] = combination with diuretic drugs

In the case of `C[C@](N)(Cc1ccc(O)c(O)c1)C(=O)O` [α-methyldopa], the “blood pressure after treatment with α-methyldopa, standing” value (hypertensive subjects [1]; 2, 4, then 6 tablets of 250 mg per day, one month, prior 22/12) is reported as 20/11, the “blood pressure after treatment with α-methyldopa, recumbent” value (hypertensive subjects [1]; 2, 4, then 6 tablets of 250 mg per day, one month, prior 23/12) is reported as 21/111/2 and the “blood pressure after treatment with α-methyldopa, sitting” value (hypertensive subjects [1]; 2, 4, then 6 tablets of 250 mg per day, one month, prior 23/111/2) is reported as 21/111/2. The functional signs (hypertensive subjects [1]; α-methyldopa alone, headaches, dizziness) was “Slight decrease of the functional signs”.
For `CCN(CC)CCCNC(=O)c1cc([N+](=O)[O-])cc[n+]1[O-]` [LA 2511, N-(3-diethylaminopropyl)-4-nitro-1-oxide-pyridine-2-carboxamide], the teratogenic effect (Teratogenicity in rats) was “No teratogenic effect”, the “blood pressure after treatment, recumbent, evening” value (normotensive subjects; CHA... Paul, 400 mg tablets, 1 for 3 weeks, 2 for 5 weeks, initial 13/8) was 11/6 and the “blood pressure after treatment, recumbent, morning” value (normotensive subjects; CHA... Paul, 400 mg tablets, 1 for 3 weeks, 2 for 5 weeks, initial 14/8) was 12/6. The tolerance (normotensive subjects; CHA... Paul, 8 weeks) was “Excellent tolerance”, the tolerance (normotensive subjects; VUI... Robert, 5 weeks) was “Excellent tolerance” and the “depression of the blood pressure” value (normotensive subjects; [12]) was “moderate gradual depression”. For the same molecule, the “influence on the heart” value (normotensive subjects; [12]) was “No deleterious influence”, the systolic pressure depression (normotensive subjects; [12]) was 2 to 4 cm of mercury and the diastolic pressure depression (normotensive subjects; oral, 200 mg to 5 g daily, normotensive, on the average) was 2 cm. The “depression of blood pressure under orthostatic conditions” value (normotensive subjects; oral, 200 mg to 5 g daily, normotensive, orthostatic) was “more substantial depression”, the “modifications in the electrocardiogram and numerous biological tests” value (normotensive subjects; oral, 200 mg to 5 g daily, blood count, sedimentation rate, phosphatases, transaminases, azotemia, glycemia, creatinine clearance, ions, lipids etc.) was “No modifications were ever noted” and the anti-hypertensive efficiency [2] was “substantial consistent efficiency”. For the same molecule, the “toxic effect on chronic treatment” value [3] was “no toxic effect”, the systemic tolerance (hypertensive subjects [4]; BLA... Isaac) was “Very good systemic tolerance” and the “taste on intake of the tablet” value (hypertensive subjects [4]; BLA... Isaac) was “Bitter taste”. For the same molecule, the “blood pressure after treatment, recumbent” value (hypertensive subjects [4]; BLA... Isaac, 6 then 4 tablets of 400 mg daily, 15 days each, prior 20/13) was 19/1, the “blood pressure after treatment, sitting” value (hypertensive subjects [4]; BLA... Isaac, 6 then 4 tablets of 400 mg daily, 15 days each, prior 20/121/2) was 19/10 and the “blood pressure after treatment, standing” value (hypertensive subjects [4]; BLA... Isaac, 6 then 4 tablets of 400 mg daily, 15 days each, prior 191/2/10) was 141/2/10. For the same molecule, the tolerance (hypertensive subjects [4]; PER... Robert) was “Excellent tolerance”, the “blood pressure after treatment, sitting” value (hypertensive subjects [4]; PER... Robert, 2, 4, then 6 tablets of 400 mg per day, 28 days, prior 21/12) was 161/2/10 and the “blood pressure after treatment, standing” value (hypertensive subjects [4]; PER... Robert, 2, 4, then 6 tablets of 400 mg per day, 28 days, prior 201/2/12) was 17/10. The “blood pressure after treatment, recumbent” value (hypertensive subjects [4]; PER... Robert, 2, 4, then 6 tablets of 400 mg per day, 28 days, prior 211/2/12) was 15/10, the functional signs (hypertensive subjects [4]; PER... Robert, headaches, ear-buzzing) was “Disappearance of the functional signs” and the “return of blood pressure to former levels after interruption” value (hypertensive subjects [4]; after interruption of administration) was 3 to 4 days. The “onset of the depression” value (hypertensive subjects [4]; alone, 300 mg to 5 g daily) was “within a few hours or a few days”, the “troublesome orthostatic hypotension induced fits of faintness” value (hypertensive subjects [4]; alone, 300 mg to 5 g daily) was “None of the subjects” and the “blood pressure in standing position” value (hypertensive subjects [4]; alone, 300 mg to 5 g daily, standing) was “more highly depressed, becoming close to normal or even attaining the normal value”. For the same molecule, the side-effect (hypertensive subjects [4]; disappear when ingested in the middle of a meal and/or dosage decreased) was “a few cases of gastric pains and nausea”, the “patients with moderate depression” value (hypertensive subjects [4]; fraction of patients, alone, 300 mg to 5 g daily, recumbent) was “One-fourth” and the “hypertensive subjects with substantial depression of the blood pressure” value (hypertensive subjects [4]; [13]) was “more than half”. For the same molecule, the subjects non-influenced (hypertensive subjects [4]; [13]) was “Less than one-fourth”, the “diastolic pressure depression in subjects with substantial depression” value (hypertensive subjects [4]; [14]) was > 2 cm of mercury and the “systolic pressure depression in subjects with substantial depression” value (hypertensive subjects [4]; [14]) was > 4 cm of mercury. The “diastolic pressure depression in patients with moderate depression” value (hypertensive subjects [4]; [15]) was “about 1 cm”, the “systolic pressure depression in patients with moderate depression” value (hypertensive subjects [4]; [15]) was “about 2 cm” and the action (hypertensive subjects [4]; oral, 200 mg to 5 g daily) was “rapid but gradual action”. The toxicity and tolerance (hypertensive subjects [4]; oral, 200 mg to 5 g daily) was “free from toxicity, well tolerated”, the “effects on blood pressure versus diuretic drugs, α-methyldopa and other hypotensive agents” value (hypertensive subjects [4]; particularly with respect to the diastolic pressure) was “much more rapid and much more positive” and the “effect on the diastolic pressure in Man” value (hypertensive subjects [4]; [16]) was “well established”. The “efficiency in Man” value (hypertensive subjects [4]; [16]) was “excellent efficiency”, the “toxicity in Man” value (hypertensive subjects [4]; [16]) was “free from toxicity” and the “toxic effect on chronic treatment” value [5] was “no toxic effect”. For the same molecule, the teratogenic effect [6] was “No teratogenic effect”, the “number of "fair" results” value [7] was 5 results and the “number of "good" and "very good" results” value [7] was 13 results. The “number of "nil" results” value [7] was 4 results, the anti-hypertensive efficiency [8] was “substantial consistent efficiency” and the LD50 [9] was 2000 mg/kg. The “blood pressure after treatment, standing” value (hypertensive subjects [10]; GAU... Albert, 5 x 400 mg daily 30 days + altizide 15 mg, spironolactone 25 mg, potassium chloride, prior 20/121/2) was 14/9, the “blood pressure after treatment, recumbent” value (hypertensive subjects [10]; [17]) was 16/10 and the “blood pressure after treatment, sitting” value (hypertensive subjects [10]; [17]) was 16/10. For the same molecule, the digestive tolerance (hypertensive subjects [10]; [18]) was “Fair digestive tolerance”, the systemic tolerance (hypertensive subjects [10]; [18]) was “Very good systemic tolerance” and the functional signs (hypertensive subjects [10]; GAU... Albert, + altizide, spironolactone, floating specks, headaches, dizziness, ear-buzzing) was “Improvement of the functional signs”. The “blood pressure after treatment, sitting” value (hypertensive subjects [10]; [19]) was 18/10, the “blood pressure after treatment, standing” value (hypertensive subjects [10]; [19]) was 17/9 and the “blood pressure after treatment, recumbent” value (hypertensive subjects [10]; SUF... Auguste, 5 x 400 mg daily 30 days + furosemide 40 mg 3 times a week, potassium chloride, salt-free diet, prior 24/13) was 18/10. For the same molecule, the “digestive and systemic tolerance” value (hypertensive subjects [10]; SUF... Auguste, + furosemide) was “Very good digestive and systemic tolerance”, the functional signs (hypertensive subjects [10]; SUF... Auguste, + furosemide, floating specks, headaches, ear-buzzing) was “Marked decrease of the functional signs” and the “blood pressure after treatment, standing” value (hypertensive subjects [10]; TRU... Yves, 4 x 400 mg daily + α-methyldopa 4 x 250 mg daily, one month, after α-methyldopa alone 20/11) was 18/9. The “blood pressure after treatment, recumbent” value (hypertensive subjects [10]; [20]) was 19/101/2, the “blood pressure after treatment, sitting” value (hypertensive subjects [10]; [20]) was 19/10 and the functional signs (hypertensive subjects [10]; TRU... Yves, + α-methyldopa, particularly the headaches) was “Marked decrease of the functional signs”. The “duration of the action” value (hypertensive subjects [10]; [21]) was “three-fold”, the “reduction of the dosage of compound” value (hypertensive subjects [10]; [21]) was “about 50%” and the “efficiency of combination with diuretics” value (hypertensive subjects [10]; combination with diuretics) was “particularly efficient combination”. The safety of combination (hypertensive subjects [10]; combined with other anti-hypertensive materials currently used) was “safely be combined”, the “anti-hypertensive efficiency in combination with diuretics” value ([11]; in combination with diuretics, stated for the experimental hypertension models together) was “efficiency is extended” and the anti-hypertensive efficiency ([11]; sino-carotid denervated hypertensive dogs) was “substantial consistent efficiency”.
